From US12049662B2, “Rapid antimicrobial susceptibility testing by video-based object scattering intensity detection” (ARIZONA BOARD OF REGENTS ON BEHALF OF ARIZONA STATE …, priority 2021, dated 2024)

How the values were obtained:
E. coli ATCC 25922 = assay: OSID-AST (object scattering intensity detection) with pure E. coli culture; format: cell-based; settings: 32 μg/ml nitrofurantoin or 2 μg/ml ciprofloxacin, 5 representative tests
Description: The integrated object scattering intensity quantification enables detection of bacterial infection and AST for infection positive samples with an algorithm such as that depicted in FIG. 1C. Two test solutions are prepared from a patient's sample. One solution with medium and antibiotics for AST and the other one with medium only as control. To detect bacterial infection, the integrated object scattering intensity in the control group is quantified over time (e.g., the object scattering intensity is measured every 5 min with the 1 min video and for a total of 90 min). Clinical decision determination is based on integrated object scattering intensity. […] Otherwise, the sample is determined as infection negative. For antibiotic resistance detection, the integrated object intensity change over time in the raw sample (ΔIC=ICt−IC0) and in the antibiotic treated sample (ΔIABX=IABXt−IABX0) are calculated. […]
To establish the method, E. coli and S. saprophyticus cultures (see Materials and Methods) with and without antibiotics were imaged for bacteria growth measurements. […] The integrated object intensity of all cells was quantified with a 1 min duration video in every 5 min interval for a total of 90 min after real-time background removal processing. […] To accurately track E. coli growth, the averaged intensity of a 1 min video was quantified in every 5 min.

[1] = tested on: S. saprophyticus ATCC 15305; assay: OSID-AST (object scattering intensity detection) with pure S. saprophyticus culture; settings: 2 μg/ml ciprofloxacin
Excerpt: ICt is the integrated object scattering intensity of samples without antibiotics at time t, IC0 is the initial intensity of the same sample. ΔIC=ICt−IC0 and ΔIABX=IABXt−IABX0, represent the integrated object scattering intensity change at time t for antibiotic-untreated (control) and -treated samples, respectively. […] For antibiotic resistance detection, the integrated object intensity change over time in the raw sample (ΔIC=ICt−IC0) and in the antibiotic treated sample (ΔIABX=IABXt−IABX0) are calculated. If the ratio between the two (ΔIABX/ΔIC) is above a resistant threshold (TR), or ΔIABX/ΔIC>TR, which indicates insufficient bacterial inhibition by the antibiotic, the sample is identified as resistant. If the ratio is at or below TR, bacteria growth is inhibited by the antibiotic, and the sample is defined as susceptible to that antibiotic.

Row | Compound | time at which antibiotic susceptibility of E. coli cells can be determined (object intensity detection) (E. coli ATCC 25922) [min] | ΔIABX/ΔIC ([1]; 90 min, resistance threshold 0.5) | object intensity change of antibiotic treated sample ([1]; 90 min detection, control sample ~1.7 times) [times] | antibiotic susceptibility determination with OSID-AST ([1]; threshold 0.5)
1 | O=C1CN(/N=C/c2ccc([N+](=O)[O-])o2)C(=O)N1 [nitrofurantoin] | 40 | – | – | –
2 | O=C(O)c1cn(C2CC2)c2cc(N3CCNCC3)c(F)cc2c1=O [ciprofloxacin] | 60 | ~0.14 | ~1.1 | susceptible
